Test results reported in publication PMC12236907, “A Natural Depsipeptide Antibiotic that Targets the E site of the Bacterial Ribosome” (Research Square, 2025).

Legend:
bacterial translation = conditions: ref [32],[33]; cited from earlier work
Description: Bound in its primary site, MKM obstructs placement of C75 and A76 of the CCA end of a deacylated tRNA within the E-site of the large ribosomal subunit, with the most significant overlap of Phe3 of MKM with the 3’ terminal adenine of the E-tRNA (Fig. 3h).

eukaryotic ribosome = conditions: ref [23],[29],[55]; cited from earlier work
Source text: Superficially, the mode of action of MKM resembles that of CHX, since MKM also stalls the elongating ribosome. However, the mechanism of translation inhibition by CHX and MKM are likely to be principally different. Because of the small size of CHX, it was proposed to co-accommodate in the E site of the eukaryotic ribosome ...

[1] = tested on: K. pneumoniae ATCC 33495 and C1559; assay: C. elegans – K. pneumoniae in vivo antibiotic activity assay (survival); set-up: species or system K. pneumoniae in Caenorhabditis elegans; conditions: MKM 64 μg/ml or polymyxin B 25 μg/ml, 6 days, vs DMSO; Log-rank (Mantel–Cox) test
Description: A C. elegans double mutant strain, AU37 (glp-4(bn2);sek-1(km4)), was used for this assay due to its enhanced pathogen infection sensitivity and temperature-sensitive sterility. The infection protocol was carried out as previously described, with slight modifications to accommodate our experimental conditions. Standard C. elegans media and protocols were used for the maintenance and growth of worms. To summarize, eggs were collected from gravid adult worms by bleaching and incubated on solid agar plates at 25 °C for 48 hours, until early adulthood. Worms were thoroughly washed with M9 buffer and transferred onto LB agar plates containing lawns of infective K. pneumoniae and incubated for another 24 hours. Worms were then washed from plates and resuspended in M9 to an approximate 2 worm per microlitre concentration. A survival assay was conducted in a 96-well plate with experimental wells containing 15 μl of worms, 80 μl S-basal (5.85 g NaCl, 1 g K2HPO4, 6 g KH2PO4, 1 ml cholesterol (5 mg/ml in ethanol), H2O to 1 litre. Sterilize by autoclaving), and 5 μl of test compound. Plates were sealed with a porous film and incubated at 25°C for a total of 7 days. The number of dead worms were counted every 24 hours to generate a Kaplan-Meier survival curve.

Compound	inhibition of bacterial translation (bacterial translation)	effect on eukaryotic translation (eukaryotic ribosome)	survival benefit in C. elegans (in words) [1]
C/C=C\[C@H](C)[C@H]1O[C@]1(C)[C@@H](O)[C@H]1COC(=O)[C@H](O)[C@@H](OC)[C@H](C)C(=O)[C@H](C)[C@@H](O)/C(C)=C/[C@H](C)C(=O)CC[C@@H](C)C1=O [13-deoxytedanolide]	do not inhibit bacterial translation	–	–
C[C@@H]1C[C@@H]([C@H](O)CC2CC(=O)NC(=O)C2)C(=O)[C@@H](C)C1 [cycloheximide]	do not inhibit bacterial translation	arrests the elongating ribosome	–
C/C(=C\[C@H](C)C(=O)C[C@H](O)CC1CC(=O)NC(=O)C1)[C@@H]1OC(=O)/C=C/CC/C=C/C=C\[C@@H]1C [lactimidomycin]	do not inhibit bacterial translation	captures the ribosomes at start codons but has little effect on translation elongation or termination	–
CC(=O)O[C@@H]1[C@@H](O)[C@H](O[C@H]2[C@H](OC(=O)[C@H]3CC[C@@H]4[C@H](C3)O[C@@]3(C[C@H](OC(=O)/C=C/c5ccccc5)[C@H](C)CO3)[C@]43CO3)O[C@H](C)[C@@H](O)[C@@H]2OC(C)=O)O[C@H](C)[C@H]1O [phyllanthoside]	do not inhibit bacterial translation	–	–
polymyxin B [reference compound]	–	–	significantly improved survival
